Experimental findings from paper PMC10439952, “JT002, a small molecule inhibitor of the NLRP3 inflammasome for the treatment of autoinflammatory disorders” (Scientific Reports, 2023) are described below.

For one assay, the system named is NLRP1 inflammasome. The experiment in a line: IL-1β production in Nlrp3-/- mouse BMDMs after NLRP1 activation (LPS + L18-MDP). As to conditions: mBMDMs, concentrations up to 10 µM. The assay is classed as cell-based.
For the next assay, the target named is T1, caspase-1 (Homo sapiens, UniProt P29466).
T1 construct: Reaction Biology Corporation (assay run there as a service)
T1 sequence (P29466 120-297 limits assumed): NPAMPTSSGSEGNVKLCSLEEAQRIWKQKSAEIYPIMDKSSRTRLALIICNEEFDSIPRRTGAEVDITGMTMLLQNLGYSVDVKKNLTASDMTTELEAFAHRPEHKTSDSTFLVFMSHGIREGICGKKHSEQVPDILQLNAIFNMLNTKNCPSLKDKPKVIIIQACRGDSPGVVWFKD
T1 sequence (P29466 317-404 limits assumed): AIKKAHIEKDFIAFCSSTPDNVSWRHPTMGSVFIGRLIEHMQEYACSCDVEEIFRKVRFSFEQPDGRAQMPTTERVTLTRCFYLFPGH
The experiment in a line: Cell-free biochemical caspase-1 assay. The method, then:
Cell viability was determined by addition of an equal volume of CellTiter-Glo® 2.0 reagent (Promega) to the remaining cells/supernatant in each well. Intracellular Caspase-1 activity was measured using the Caspase-Glo® assay (Promega) according to the manufacturer’s instructions. The biochemical capsase-1 assay was conducted at Reaction Biology Corporation (Malvern, USA). Human IL-1β, IL-1α, and TNFα and mouse IL-1β were measured in cell culture supernatants using homogeneous time resolved fluorescence assay kits (HTRF, Cisbio, Codolet, France). Human IL-18 was measured in cell culture supernatants using an ELISA kit (R&D Systems, Minneapolis, MN, USA). Plasma IL-1β concentrations were determined by Quantikine® ELISA (R&D Systems, Minneapolis, MN).

Assay [1] deals with OVA sensitized, OVA challenged and iTreg transferred CD8α-/- mice. The experiment in a line: Murine model of iTreg induced IL-17-dependent neutrophilic asthma. The assay is classed as in vivo, mouse. How it is done:
In an allergen-dependent, inducible regulatory T cell (iTreg) model of IL-17-dependent neutrophilic asthma, ovalbumin (OVA) sensitized recipient CD8α^−/− mice are administered iTreg cells intratracheally (i.t.) on Day 26 after the first OVA challenge and subsequently challenged with OVA on Days 26–28[48] (Fig. 5A). This model elicits TH17-dependent IL-17 release that promotes airway neutrophilia and enhanced airway hyperresponsiveness (AHR) to inhaled methacholine. We investigated the effect of JT002 at two doses in OVA sensitized, OVA challenged and iTreg transferred CD8α^−/− mice. JT002 was administered to mice once daily (QD) by oral gavage (p.o.) on Days 23–29 at 2.5 mg/kg (n = 3/group) and at 25 mg/kg (n = 7/group) before evaluation of airway hyperresponsiveness (AHR) and airway inflammation on Day 30 (Fig. 5A). Additional control groups included vehicle treated disease animals (OVA/OVA + iTregs; n = 7/group), OVA sensitized, OVA challenged control animals (OVA/OVA; n = 6/group) and phosphate buffer saline (PBS) sensitized, OVA challenged animals (PBS/OVA; n = 4/group). […] Sensitization and challenge with OVA led to an increase in total serum IgE as well as OVA-specific serum IgE, IgG1 and IgG2b even in the absence of iTreg instillation (Fig. 5E, Supplementary Fig. 4C).
CD4^+CD25^− T cells were enriched from spleens of naïve C57BL/6 mice to > 98% purity with MACS beads (Miltenyi Biotec, Bergisch-Gladbach, Germany). Cells were washed, counted, and resuspended to a final concentration of 4 × 10^6 cells per mL and cultured in X-Vivo 15 (Lonza, Wakersville, MD) supplemented with 5 ng/mL IL-2 and stimulated with bound anti-CD3 and 2 μg/mL soluble anti-CD28 with 5 ng/mL TGF-β for five to seven days to generate iTregs. Female CD8α^−/− C57BL6/j mice were sensitized by intraperitoneal injection of 20 μg OVA (Sigma Aldrich, St. Louis, MO) emulsified in 2.25 mg alum hydroxide (Imject Alum, Pierce, Rockford, IL) in a total volume of 100 μL on Days 0 and 14. Sensitized and challenged mice, denoted OVA/OVA, and non-sensitized but challenged littermates (PBS/OVA) received aerosol challenges for 20 min each day on three consecutive days (Days 26–28) with 1% OVA in PBS using an ultrasonic nebulizer (Omron, Vernon Hills, IL). On Day 26, differentiated iTregs cells generated in vitro were washed and adoptively transferred (5 × 10^5 in 50 μL of PBS) into OVA/OVA mice, denoted as OVA/OVA + iTregs. OVA/OVA + iTregs mice were dosed orally with JT002 at 2.5 or 25 mg/kg once daily on Days 23–29 or with vehicle (0.5% methyl cellulose, 0.25% Tween 80 in 50 mM NaH2PO4/Na2HPO4 at pH 8).
Determination of airway hyperresponsiveness (AHR) AHR was assessed on Day 30 (iTreg model) or 3 h after the O3 exposure (ozone model) as a change in airway resistance (cm H2O/mL/s) after challenge with aerosolized methacholine with using a whole body plethysmograph-based system (National Jewish Medical and Research Center, Denver, CO). Methacholine aerosol was administered by nebulization in increasing concentrations (12.5–100 mg/mL) and RL was continuously computed by fitting flow, volume, and pressure to an equation of motion (Labview, National Instruments, Dallas, TX). Bronchoalveolar Lavage Immediately after assessment of AHR, lungs were lavaged via the tracheal tube with 1 mL of Hanks’ balanced salt solution (Gibco, Grand Island, NY). Total cell numbers were counted. Differential cell counts for neutrophils and macrophages were performed in a blinded fashion by counting at least 200 cells on cytocentrifuged preparations (Model Cytospin 3, Shandon Ltd, Runcorn, UK) stained with Leukostat (Fisher Diagnostics, Fair Lawn, NJ). Cell-free BAL fluid was stored at − 80 °C until measurements of cytokine levels by ELISA (eBioscience, San Diego, CA) were performed. Blood Collection Immediately following AHR measurement, mice were euthanized by exsanguination and blood collected for serum. Samples were stored at − 80 °C for subsequent measurement of immunoglobulin levels by ELISA. […]

The mark [2] stands for this setting: low dose 2.5 mg/kg p.o. QD Days 23–29.

Regarding `CO[C@@H]1COc2c(S(=O)(=O)NC(=O)Nc3c4c(cc5c3CCC5)CCC4)cnn2C1` [JT002], the “inhibition of IL-1β production after NLRP1 activation” value with NLRP1 inflammasome is “no inhibition of IL-1β production”. At caspase-1, the “direct inhibition of caspase-1 enzymatic activity” value is reported as “not a direct inhibitor of caspase-1 enzymatic activity”. In assay [1] (25 mg/kg p.o. QD Days 23–29), the “BAL IL-6 concentration” value is on record as “significantly decreased”, the “BAL IL-10 concentration” value is listed as “strong trend for increased”, the “BAL IL-17 concentration” value is on record as “significantly decreased” and the “BAL INFγ concentration” value is listed as “increased”. In addition, in assay [1] (25 mg/kg p.o. QD Days 23–29), the airway eosinophilia result is recorded as “no effect”, the “airway hyperresponsiveness (AHR)” value is given as “significantly decreased”, the airway neutrophilia entry was “significantly decreased” and the “submucosal inflammatory cell infiltration” value was “visibly decreased”. Besides, in assay [1] (high dose (25 mg/kg)), the “serum OVA-specific IgE” value is “significant decrease”, the “serum OVA-specific IgG isoforms” value is recorded as “no significant effect” and the “serum total IgE” value was “significant decrease”. Further, in assay [1] (setting [2]), the “airway hyperresponsiveness (AHR)” value is recorded as “no significant changes” and the airway inflammation result is reported as “no significant changes”.
